Measurements from patent US6645973B1, “Spiro(2h-1-benzopyran-2,4-piperidine)derivatives as glycine transport inhibitors” (Akzo Nobel, priority 1999, dated 2003).
Structures can show the parent of a compound that is named as a salt.

Biological target: T1, human GlyT-1b transporter (Homo sapiens, UniProt P48067)
T1 construct: expressed in transfected cells; host or cells: CHO cells, stably transfected (pcDNA3, Geneticin selection)
T1 sequence (P48067 1-652 isoform P48067-3): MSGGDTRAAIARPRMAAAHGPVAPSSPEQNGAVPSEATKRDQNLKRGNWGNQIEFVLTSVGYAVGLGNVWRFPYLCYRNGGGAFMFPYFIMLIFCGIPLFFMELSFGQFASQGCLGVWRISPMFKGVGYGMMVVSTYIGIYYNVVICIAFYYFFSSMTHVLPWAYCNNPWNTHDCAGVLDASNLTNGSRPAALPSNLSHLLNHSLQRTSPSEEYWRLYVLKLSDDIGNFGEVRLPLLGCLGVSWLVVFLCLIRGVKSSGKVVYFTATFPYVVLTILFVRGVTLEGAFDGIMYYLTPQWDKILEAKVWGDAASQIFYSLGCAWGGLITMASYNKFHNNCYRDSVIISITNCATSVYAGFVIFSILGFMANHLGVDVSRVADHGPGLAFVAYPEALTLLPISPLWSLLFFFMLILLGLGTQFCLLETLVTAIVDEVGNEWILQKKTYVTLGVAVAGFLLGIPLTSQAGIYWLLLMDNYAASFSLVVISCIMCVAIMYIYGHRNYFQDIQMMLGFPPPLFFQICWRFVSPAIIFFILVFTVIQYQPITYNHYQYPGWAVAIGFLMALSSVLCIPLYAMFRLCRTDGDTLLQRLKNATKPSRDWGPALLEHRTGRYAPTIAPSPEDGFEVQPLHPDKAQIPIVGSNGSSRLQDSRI
Experiment: Glycine uptake in CHO cells heterologously expressing the human GlyT-1b transporter ([3H]glycine uptake)
Format: cell-based
Details: CHO cells stably expressing hGlyT-1b, 10 minutes, 37° C.
Protocol: Method for Determination of Glycine Uptake in CHO Cells Heterologously Expressing the Human GlyT-1b Transporter
A: Cloning: cDNA was generated by PCR according to the method described by Kim, K.-M. et al. Mol. Pharmacol. 1994, 45, 608-617. Sequence was verified by dideoxy sequencing using the ALF DNA sequencer™ (Pharmacia) and cloned into the expression construct pcDNA3 (Invitrogen).
B: Transfection: Transfection of hGlyT-1b into CHO cells was performed using a standard calcium phosphate technique as described by Sambrook, J. et al. (1989) in Molecular Cloning: A Laboratory Manual, Cold Spring Harbor Laboratory, Cold Spring Harbor, N.Y.
C: Selection: Stably transfected cells were selected for 1 week in growth medium containing 1 mg.cm^−3 Geneticin. Individual clones were picked for further analysis and positives passaged routinely as described below.
D: Culture conditions: Cells stably expressing; the hGlyT-1b gene were cultured at 37° C. in a 5% C02 atmosphere in DMEM—NUT.MIX. F12 with Glutamax-1 (Gibco) containing Geneticin (0.5 mg.cm^−3, Gibco) and supplemented with 10% Fetalclone II (Hyclone). Maintenance culture was carried out in standard 80 cm^2 ventilated flasks (2×10^−6 m filter, Nunc) and cells were subcultured by trypsinisation (Sigma) when confluent.
E: Assay Procedure: Cells for uptake studies were plated in 96 well plates (17,000 cells per well) in the absence of Geneticin and cultured for 48 h before use. To measure glycine transport, cells were washed twice with Hanks' balanced salt solution (HBSS) pre-warmed to 37° C. and excess fluid removed before addition of test compounds dissolved in 0.200 cm^3 HBSS. Plates were incubated at 37° C. for 5 minutes before addition of [^3H]glycine (0.050′cm^3, 150×10^−6 M, 248 Bq.nmol^−1, NEN) and incubation continued for a further 10 minutes. Uptake was terminated by washing cells with ice-cold HBSS before removal of excess fluid and addition of 0.200 cm^3 scintillation cocktail to each well. Plates were sealed with adhesive film, shaken to ensure samples were homogenous before scintillation counting in a plate counter.
F: Analysis: Data were analysed using standard curve fitting procedures to produce a plC50 value for active compounds (where plC50 is the negative logarithm of the concentration of test compound causing 50% inhibition of uptake).

SMILES | Inhibition of glycine transport by hGlyT-1, pIC50
Cl.O=C(O)CN1CCC2(C=C(c3ccc4c(c3)OCO4)c3ccccc3O2)CC1 [Example 14, 4-(1,3-Benzodioxolo)-1′-carboxymethylspiro[2H-1-benzopyran-2,4′-piperidine]hydrochloride] | 6.1
Cc1ccc(C2=CC3(CCN(CC(=O)O)CC3)Oc3ccccc32)cc1.Cl [Example 4, 1′-Carboxymethyl-4-(4-methylphenyl)spiro[2H-1-benzopyran-2,4′-piperidine]hydrochloride] | 6.3
Cl.O=C(O)CN1CCC2(C=C(c3ccc4c(c3)OC(F)(F)O4)c3ccccc3O2)CC1 [Example 33, 1′-Carboxymethyl-4-(2,2-difluoro-1,3-benzodioxolo)spiro[2H-1-benzopyran-2,4′-piperidine]hydrochloride] | 6.2

Same assay, conditions: CHO cells stably expressing hGlyT-1b, 10 minutes, 37° C., read-out: Inhibition of glycine transport by hGlyT-1, pIC50 (converted)

SMILES | IC50 [nM]
O=C(O)CN1CCC2(C=C(c3ccc(Cl)c(F)c3)c3ccccc3O2)CC1 [Example 8, 1′-Carboxymethyl-4-(4-chloro-3-fluorophenyl)spiro[2H-1-benzopyran-2,4′-piperidine]hydrochloride] | 501
CN(C)c1ccc(C2=CC3(CCN(CC(=O)O)CC3)Oc3ccccc32)cc1F [Example 37, 1′-Carboxymethyl-4-(4-dimethylamino-3-fluorophenyl)spiro[2H-1-benzopyran-2,4′-piperidine]hydrochloride] | 398
CN(C)c1ccc(C2=CC3(CCN(CC(=O)O)CC3)Oc3ccccc32)cc1 [Example 24, 1′-Carboxymethyl-4-[4-(N,N-dimethylamino)phenyl]spiro[2H-1-benzopyran-2,4′-piperidine]hydrochloride] | 631
O=C(O)CN1CCC2(C=C(c3ccc(Br)c(F)c3)c3ccccc3O2)CC1 [Example 39, 4-(4-Bromo-3-fluorophenyl)-1′-carboxymethylspiro[2H-1-benzopyran-2,4′-piperidine]hydrochloride] | 794
COc1ccc(C2=CC3(CCN(CC(=O)O)CC3)Oc3ccccc32)cc1F [Example 11, 1′-Carboxymethyl-4-(3-fluoro-4-methoxyphenyl)spiro[2H-1-benzopyran-2,4′-piperidine]hydrochloride] | 631
CN(C)c1c(F)cc(C2=CC3(CCN(CC(=O)O)CC3)Oc3ccccc32)cc1F [Example 38, 1′-Carboxymethyl-4-(3,5-difluoro-4-dimethylaminophenyl)spiro[2H-1-benzopyran-2,4′-piperidine]hydrochloride] | 251
CCCOc1ccc(C2=CC3(CCN(CC(=O)O)CC3)Oc3ccccc32)cc1F [Example 48, 1′-Carboxymethyl-4-(3-fluoro-4-n-propoxyphenyl)spiro[2H-1-benzopyran-2,4′-piperidine]hydrochloride] | 501
CC(C)(C)c1ccc(C2=CC3(CCN(CC(=O)O)CC3)Oc3ccccc32)cc1 [Example 12, 1′-Carboxymethyl-4-(4-tert-butylphenyl)spiro[2H-1-benzopyran-2,4′-piperidine]hydrochloride] | 398
O=C(O)CN1CCC2(C=C(c3ccc4ccccc4c3)c3ccccc3O2)CC1 [Example 10, 1′-Carboxymethyl-4-(2-naphthyl)spiro[2H-1-benzopyran-2,4′-piperidine]hydrochloride] | 631
Cc1ccc(C2=CC3(CCN(CC(=O)O)CC3)Oc3cc(Cl)ccc32)cc1F [Example 35, 1′-Carboxymethyl-7-chloro-4-(3-fluoro-4-methylphenyl)spiro[2H-1-benzopyran-2,4′-piperidine]hydrochloride] | 501
COc1c(F)cc(C2=CC3(CCN(CC(=O)O)CC3)Oc3ccccc32)cc1F [Example 36, 1′-Carboxymethyl-4-(3,5-difluoro-4-methoxyphenyl)spiro[2H-1-benzopyran-2,4′-piperidine]hydrochloride] | 398
C#CCOc1c(F)cc(C2=CC3(CCN(CC(=O)O)CC3)Oc3ccccc32)cc1F [Example 57, 1′-Carboxymethyl-4-(3,5-difluoro-4-propargyloxyphenyl)spiro[2H-1-benzopyran-2,4′-piperidine]hydrochloride] | 251
O=C(O)CN1CCC2(C=C(c3ccc(Cl)cc3)c3ccccc3O2)CC1 [Example 2, 1′-Carboxymethyl-4-(4-chlorophenyl)spiro[2H-1-benzopyran-2,4′-piperidine]hydrochloride] | 1000
Cc1ccc(C2=CC3(CCN(CC(=O)O)CC3)Oc3ccccc32)cc1F [Example 28, 1′-Carboxymethyl-4-(3-fluoro-4-methylphenyl)spiro[2H-1-benzopyran-2,4′-piperidine]hydrochloride] | 316
C=CCOc1c(F)cc(C2=CC3(CCN(CC(=O)O)CC3)Oc3ccccc32)cc1F [Example 55, 4-(4-Allyloxy-3,5-difluorophenyl)-1′-carboxymethylspiro[2H-1-benzopyran-2,4′-piperidine]hydrochloride] | 251
CCCCOc1ccc(C2=CC3(CCN(CC(=O)O)CC3)Oc3ccccc32)cc1F [Example 49, 1′-Carboxymethyl-4-(3-fluoro-4-n-butoxyphenyl)spiro[2H-1-benzopyran-2,4′-piperidine]hydrochloride] | 794
O=C(O)CN1CCC2(C=C(c3cc(F)c(OCC(F)(F)F)c(F)c3)c3ccccc3O2)CC1 [Example 59, 1′-Carboxymethyl-4-(3,5-difluoro-4-trifluoroethoxyphenyl)spiro[2H-1-benzopyran-2,4′-piperidine]hydrochloride] | 251

Test system: not given
Experiment: not given
Details: not given

SMILES | melting point
COc1ccc(C2=CC3(CCN(CC(=O)O)CC3)Oc3ccccc32)cc1F (as salt: hydrochloride) [Example 11, 1′-Carboxymethyl-4-(3-fluoro-4-methoxyphenyl)spiro[2H-1-benzopyran-2,4′-piperidine]hydrochloride] | 252 to 261 °C
O=C([O-])CN1CCC2(C=C(c3ccccc3)c3cc(F)ccc3O2)CC1.[Li+] | 293 to 298 °C (dec.)
O=C([O-])CN1CCC2(C=C(c3ccc(F)cc3)c3ccccc3O2)CC1.[Li+] | 285 to 291 °C (dec.)
C#CCOc1c(F)cc(C2=CC3(CCN(CC(=O)O)CC3)Oc3ccccc32)cc1F (as salt: hydrochloride) [Example 57, 1′-Carboxymethyl-4-(3,5-difluoro-4-propargyloxyphenyl)spiro[2H-1-benzopyran-2,4′-piperidine]hydrochloride] | 211 to 217 °C
O=C([O-])CN1CCC2(C=C(c3ccccc3)c3ccccc3O2)CC1.[Li+] | 280 to 281 °C
O=C(O)CN1CCC2(C=C(c3ccc4ccccc4c3)c3ccccc3O2)CC1 (as salt: hydrochloride) [Example 10, 1′-Carboxymethyl-4-(2-naphthyl)spiro[2H-1-benzopyran-2,4′-piperidine]hydrochloride] | 253 to 264 °C
O=C(O)CN1CCC2(C=C(c3ccc(Cl)c(F)c3)c3ccccc3O2)CC1 (as salt: hydrochloride) [Example 8, 1′-Carboxymethyl-4-(4-chloro-3-fluorophenyl)spiro[2H-1-benzopyran-2,4′-piperidine]hydrochloride] | 263 to 274 °C
CCOC(=O)CN1CCC2(C=C(c3ccc(CC)cc3)c3ccccc3O2)CC1 [Example 65, Ethyl 4-(4-ethylphenyl)spiro[2H-1-benzopyran-2,4′-piperidine]-1′-acetate] | 119 to 121 °C
